Data on 22 compounds can be found in patent US10800785B2, “Substituted pyrrolo[2,3-d]pyridazin-4-ones and pyrazolo[3,4-d]pyridazin-4-ones as protein kinase inhibitors” (Shanghai Fochon Pharmaceutical Co., Ltd., priority 2016, dated 2020).

This test deals with DOHH2 cells. As to the kind of experiment: Cell proliferation assay (MTS) in DOHH2 cells, mechanism-based assay for BTK inhibition. The settings on record: Homo sapiens, DOHH-2, 120 h incubation, 5000 cells/well. The text has this:
Cell Proliferation Assays
MTS testing kit was purchased from Promega. The DMEM, Fetal bovine serum and Penicillin-Streptomycin were purchased from Gibco. Dimethyl sulfoxide (DMSO) was purchased from Sigma.
To investigate whether a compound is able to inhibit the activity of BTK in cells, a mechanism-based assay using DOHH2 (DSMZ catalog#: ACC47) and Mino (ATCC® Number CRL-3000™) cells was developed. In this assay, inhibition of BTK was detected by the inhibition of DOHH2 and Mino cell proliferations. DOHH2 or Mino cells were cultured in culture flasks to 40-80% confluence in RPMI-1640 plus 10% fetal bovine serum. C ells were collected and plated onto 96-well plates at desired cell density (DOHH2: 5000 cells/well; Mino: 10000 cells/well). Plates were incubated overnight at 37° C., with 5% CO2 to adhere. Compounds were added to the plates, and the final compound concentrations were 10000, 3333, 1111, […], 41, 14, 4.6 and 1.5 nM. Plates were placed at 37° C., with 5% CO2 for 120 h (DOHH2) or 72 h (Mino). 20 μl MTS/100 μl medium mixture solution were added to each well and the plates were incubated for exactly 2 hours. The reaction was stopped by adding 25 μl 10% SDS per well.
Select compounds prepared as described above were assayed according to the biological procedures described herein.
By IC50 is commonly meant the midpoint of a concentration-inhibition curve. A high value points to a need for much substance. The compound `CC#CC(=O)N1CC[C@@H](c2nn(-c3ccc(Oc4ccccc4)cc3)c3c(N)n[nH]c(=O)c23)C1` [Example 65, (R)-7-amino-3-(1-(but-2-ynoyl)pyrrolidin-3-yl)-1-(4-phenoxyphenyl)-1,5-dihydro-4H-pyrazolo[3,4-d]pyridazin-4-one] yielded an IC50 of 505 nM.

`C=CC(=O)N1CC[C@@H](c2nn(-c3ccc(Oc4ccccc4F)cc3)c3c(N)n[nH]c(=O)c23)C1` [Example 41, (R)-3-(1-acryloylpyrrolidin-3-yl)-7-amino-1-(4-(2-fluorophenoxy)phenyl)-1,5-dihydro-4H-pyrazolo[3,4-d]pyridazin-4-one] yielded an IC50 of 146 nM. This IC50 is about 3.5-fold lower than that of the compound before.

`C=CC(=O)N1CCC(c2cn(-c3ccc(Oc4ccccc4F)cc3)c3c(N)n[nH]c(=O)c23)CC1` [Example 113, 3-(1-acryloylpiperidin-4-yl)-7-amino-1-(4-(2-fluorophenoxy)phenyl)-1,5-dihydro-4H-pyrrolo[2,3-d]pyridazin-4-one] displayed an IC50 of 161 nM.

As to `CC#CC(=O)N1CCC[C@@H](c2nn(-c3ccc(Oc4ccccc4)cc3)c3c(N)n[nH]c(=O)c23)C1` [Example 69, (R)-7-amino-3-(1-(but-2-ynoyl)piperidin-3-yl)-1-(4-phenoxyphenyl)-1,5-dihydro-4H-pyrazolo [3,4-d]pyridazin-4-one], the IC50 was 863 nM.

As for `C=CC(=O)N1CC[C@@H](c2cn(-c3ccc(Oc4ccccc4F)cc3)c3c(N)n[nH]c(=O)c23)C1` [Example 17, (S)-3-(1-acryloylpyrrolidin-3-yl)-7-amino-1-(4-(2-fluorophenoxy)phenyl)-1,5-dihydro-4H-pyrrolo[2,3-d]pyridazin-4-one], the IC50 was 21 nM.

The compound `CC#CC(=O)N1CCC[C@H](c2cn(-c3ccc(Oc4ccccc4)cc3)c3c(N)n[nH]c(=O)c23)C1` [Example 72, (R)-7-amino-3-(1-(but-2-ynoyl)piperidin-3-yl)-1-(4-phenoxyphenyl)-1,5-dihydro-4H-pyrrolo[2,3-d]pyridazin-4-one] yielded an IC50 of 260 nM. This IC50 lies about 12-fold higher than the previous one.

`C=CC(=O)N1CCC[C@@H](c2nn(-c3ccc(Oc4cccc(F)c4F)cc3)c3c(N)n[nH]c(=O)c23)C1` [Example 56, (R)-3-(1-acryloylpiperidin-3-yl)-7-amino-1-(4-(2,3-difluorophenoxy)phenyl)-1,5-dihydro-4H-pyrazolo[3,4-d]pyridazin-4-one] returned an IC50 of 42 nM.

As for `C=CC(=O)N1CCC[C@H](c2nn(-c3ccc(Oc4ccccc4)cc3)c3c(N)n[nH]c(=O)c23)C1` [Example 16, (S)-3-(1-acryloylpiperidin-3-yl)-7-amino-1-(4-phenoxyphenyl)-1,5-dihydro-4H-pyrazolo[3,4-d]pyridazin-4-one], the IC50 came out at 37 nM. The IC50 values of the last two compounds are within 1.5-fold of each other.

`CC#CC(=O)N1CCC(c2cn(-c3ccc(Oc4ccccc4)cc3)c3c(N)n[nH]c(=O)c23)C1` (stereo not shown) [Example 2, 7-amino-3-(1-(but-2-ynoyl)pyrrolidin-3-yl)-1-(4-phenoxyphenyl)-1,5-dihydro-4H-pyrrolo[2,3-d]pyridazin-4-one] displayed an IC50 of 244 nM. Against the preceding compound, the IC50 is about 6.6-fold higher.

Compound `C=CC(=O)N1CCC[C@H](c2cn(-c3ccc(Oc4cc(F)cc(F)c4)cc3)c3c(N)n[nH]c(=O)c23)C1` [Example 40, (R)-3-(1-acryloylpiperidin-3-yl)-7-amino-1-(4-(3,5-difluorophenoxy)phenyl)-1,5-dihydro-4H-pyrrolo[2,3-d]pyridazin-4-one] showed an IC50 of 375 nM.

`C=CC(=O)N1CC[C@H](c2nn(-c3ccc(Oc4ccccc4F)cc3)c3c(N)n[nH]c(=O)c23)C1` [Example 47, (S)-3-(1-acryloylpyrrolidin-3-yl)-7-amino-1-(4-(2-fluorophenoxy)phenyl)-1,5-dihydro-4H-pyrazolo[3,4-d]pyridazin-4-one] returned an IC50 of 60 nM.

Compound `CC#CC(=O)N1CCC(c2cn(-c3ccc(Oc4c(F)cccc4F)cc3)c3c(N)n[nH]c(=O)c23)C1` (stereo not shown) [Example 4, 7-amino-3-(1-(but-2-ynoyl)pyrrolidin-3-yl)-1-(4-(2,6-difluorophenoxy)phenyl)-1,5-dihydro-4H-pyrrolo[2,3-d]pyridazin-4-one] returned an IC50 of 250 nM.

`CC#CC(=O)N1CC[C@H](c2nn(-c3ccc(Oc4ccccc4)cc3)c3c(N)n[nH]c(=O)c23)C1` [Example 66, (S)-7-amino-3-(1-(but-2-ynoyl)pyrrolidin-3-yl)-1-(4-phenoxyphenyl)-1,5-dihydro-4H-pyrazolo [3,4-d]pyridazin-4-one] showed an IC50 of 242 nM.

With `C=CC(=O)N1CC(c2cn(-c3ccc(Oc4ccccc4)cc3)c3c(N)n[nH]c(=O)c23)C1` [Example 114, 3-(1-acryloylazetidin-3-yl)-7-amino-1-(4-phenoxyphenyl)-1,5-dihydro-4H-pyrrolo[2,3-d] pyridazin-4-one], the IC50 worked out at 473 nM.

As for `C=CC(=O)N1CC[C@H](c2nn(-c3ccc(Oc4ccccc4)cc3)c3c(N)n[nH]c(=O)c23)C1` [Example 14, (S)-3-(1-acryloylpyrrolidin-3-yl)-7-amino-1-(4-phenoxyphenyl)-1,5-dihydro-4H-pyrazolo[3,4-d]pyridazin-4-one], the midpoint of inhibition, the IC50, lay at 50 nM.

The compound `C=CC(=O)N1CCC[C@H](c2cn(-c3ccc(Oc4ccccc4F)cc3)c3c(N)n[nH]c(=O)c23)C1` [Example 35, (R)-3-(1-acryloylpiperidin-3-yl)-7-amino-1-(4-(2-fluorophenoxy)phenyl)-1,5-dihydro-4H-pyrrolo [2,3-d]pyridazin-4-one] showed an IC50 of 33 nM.

`CC#CC(=O)N1CC[C@H](c2cn(-c3ccc(Oc4ccccc4F)cc3)c3c(N)n[nH]c(=O)c23)C1` [Example 76, (R)-7-amino-3-(1-(but-2-ynoyl)pyrrolidin-3-yl)-1-(4-(2-fluorophenoxy)phenyl)-1,5-dihydro-4H-pyrrolo[2,3-d]pyridazin-4-one] yielded an IC50 of 124 nM.

In the case of `CC#CC(=O)N1CCC[C@@H](c2cn(-c3ccc(Oc4ccccc4)cc3)c3c(N)n[nH]c(=O)c23)C1` [Example 71, (S)-7-amino-3-(1-(but-2-ynoyl)piperidin-3-yl)-1-(4-phenoxyphenyl)-1,5-dihydro-4H-pyrrolo[2,3-d]pyridazin-4-one], the IC50 worked out at 228 nM.

Regarding `COC/C=C/C(=O)N1CCC[C@@H](c2cn(-c3ccc(Oc4ccccc4)cc3)c3c(N)n[nH]c(=O)c23)C1` [Example 101, (S,E)-7-amino-3-(1-(4-methoxybut-2-enoyl)piperidin-3-yl)-1-(4-phenoxyphenyl)-1,5-dihydro-4H-pyrrolo[2,3-d]pyridazin-4-one], the IC50 is 208 nM.

`C=CC(=O)N1CCC[C@@H](c2cn(-c3ccc(Oc4cccc(F)c4F)cc3)c3c(N)n[nH]c(=O)c23)C1` [Example 32, (S)-3-(1-acryloylpiperidin-3-yl)-7-amino-1-(4-(2,3-difluorophenoxy)phenyl)-1,5-dihydro-4H-pyrrolo[2,3-d]pyridazin-4-one] returned an IC50 of 58 nM. This IC50 lies about 3.6-fold lower than the previous one.

Regarding `C=CC(=O)N1CC[C@H](c2cn(-c3ccc(Oc4ccccc4F)cc3)c3c(N)n[nH]c(=O)c23)C1` [Example 23, (R)-3-(1-acryloylpyrrolidin-3-yl)-7-amino-1-(4-(2-fluorophenoxy)phenyl)-1,5-dihydro-4H-pyrrolo[2,3-d]pyridazin-4-one], inhibition was half-maximal at 42 nM (IC50).

`C=CC(=O)N1CC[C@@H](c2nn(-c3ccc(Oc4cc(F)cc(F)c4)cc3)c3c(N)n[nH]c(=O)c23)C1` [Example 46, (R)-3-(1-acryloylpyrrolidin-3-yl)-7-amino-1-(4-(3,5-difluorophenoxy)phenyl)-1,5-dihydro-4H-pyrazolo[3,4-d]pyridazin-4-one] gave an IC50 of 59 nM.
